The test system of series [1] is Klebsiella pneumoniae. Put plainly: In vitro antibacterial activity against Klebsiella pneumoniae (A 9664). The format is functional. The note with it: Klebsiella pneumoniae; read-out: MIC.
The next series concerns Morganella morganii. Briefly: In vitro antibacterial activity against M. morganii(A 15153). The format is functional.
Series [2] deals with Pseudomonas aeruginosa. Put plainly: In vivo efficacy in systemic infection due to Pseudomonas aeruginosa (A 9843) in mice. The format is functional. Conditions: read-out: PD50.
For the next series, the system named is Canis familiaris. Briefly: Area under the concentration/ time in plasma after oral administration in dog (25 mg/kg). Type of series: ADME, organism-based, Canis lupus familiaris. Conditions: in vivo.
Series [3] is described as follows: Half-life in plasma after oral administration in dog (25 mg/kg). The format is ADME, organism-based, Canis lupus familiaris.
The nature of series [4]: Lethal dose of compound in OF1-strain female swiss mice after oral administration. Type of series: toxicity, organism-based. The note with it: mouse, in vivo.
Series [5] is described as follows: Urinary recovery after 24 hr in plasma after oral administration in dog (25 mg/kg). The format is ADME, organism-based, Canis lupus familiaris. Conditions: urine, read-out: UR.
Series [6] deals with Staphylococcus aureus. Briefly: In vivo efficacy in systemic infection due to Staphylococcus aureus Smith (A 9537) in mice. Conditions: read-out: PD50. Type of series: functional.
The test system of another series is Enterobacter cloacae. Briefly: In vitro antibacterial activity against Enterobacter cloacae (A 9656). The format is functional. Conditions: Enterobacter cloacae; read-out: MIC.
Series [7] has as its system Staphylococcus aureus. Put plainly: In vitro antibacterial activity against Staphylococcus aureus Smith (A9537). Conditions: Staphylococcus aureus; read-out: MIC. Type of series: functional.
The nature of series [8]: Maximum concentration in plasma after oral administration in dog (25 mg/kg). Type of series: ADME, organism-based, Canis lupus familiaris. Details: dose 25 mg/kg, route oral.
Series [9] deals with Klebsiella pneumoniae. Briefly: In vivo efficacy in systemic infection due to Klebsiella pneumoniae (A 9664) in mice. Type of series: functional. Conditions: read-out: PD50.
Series [10] deals with Escherichia coli. Briefly: In vivo efficacy in systemic infection due to Escherichia coli (A 15119) in mice. The note with it: read-out: PD50. Type of series: functional.
Series [11] has as its system Pseudomonas aeruginosa. Put plainly: In vitro antibacterial activity against Pseudomonas aeruginosa (A 9843). Conditions: Pseudomonas aeruginosa; read-out: MIC. The format is functional.
For series [12], the system named is Escherichia coli. Briefly: In vitro antibacterial activity against Escherichia coli (A 15119). The format is functional. Conditions: Escherichia coli; read-out: MIC.

SMILES strings stand for the structures. Converted amounts (≈) assume the structure as drawn. Where only a bound is given, the exact number is not on record here.

Take `CC(C)(C)n1cc(C(=O)O)c(=O)c2cc(F)c(N3CCNCC3)nc21`: the MIC in the series on Klebsiella pneumoniae [1] came out at 0.13 µg/mL (≈ 0.373 µM); against Morganella morganii it was 0.25 µg/mL (≈ 0.718 µM); in the series with Enterobacter cloacae it was 0.06 µg/mL (≈ 0.172 µM); in the series with Staphylococcus aureus [7], 0.06 µg/mL (≈ 0.172 µM); in the series with Pseudomonas aeruginosa [11], 1 µg/mL (≈ 2.87 µM); in the series on Escherichia coli [12], 0.015 µg/mL (≈ 0.0431 µM). The ED50 in the series on Pseudomonas aeruginosa [2] is 12 mg/kg; in the series on Staphylococcus aureus [6] it was 1.1 mg/kg; in the series with Klebsiella pneumoniae [9], 5 mg/kg; in the series with Escherichia coli [10], 2.4 mg/kg. The molecule also came in with an AUC in the series on Canis familiaris of 50 µg/mL. In series [3], the half-life was 288 min. Besides, in series [4], the LD50 is more than 2500 mg/kg. Further, in [5], the dose excreted at 24 h amounted to 12%. For the same molecule, in [8], the Cmax is 5800 ng/mL.

These data come from ChEMBL document CHEMBL1124630, “Fluoronaphthyridines and quinolones as antibacterial agents. 1. Synthesis and structure-activity relationships of new 1-substituted derivatives” (J Med Chem, 1989).
